Reference: the OligoGym collection
After the bases stand the sugars from the 5' end (letter, count) and the backbone: PS all phosphorothioate, else s phosphorothioate and o phosphodiester by linkage. Methylation of C is not given here. e = 2'-O-(2-methoxyethyl) (MOE); k = constrained ethyl (cEt); d = 2'-deoxy (DNA); m = 2'-O-methyl

Target: HSD17B13
Conditions: ASO, HepaRG

Row | Sequence | target mRNA inhibition (1 µM) [%] | further results
1 | AACTGAAACGATCCTC (sugars k3 d10 k3, PS) | 52 | 
2 | AGGCUGTAAGAGTCAG (sugars k3 d1 m1 d8 k3, PS) | 52 | 
3 | ATTCTAAACTAGTGGT (sugars k3 d10 k3, PS) | 39 | 
4 | TGAAAACTCAGCCAGC (sugars k3 d10 k3, PS) | 77 | target mRNA inhibition (0.02 µM): 15%; target mRNA inhibition (0.078 µM): 33%; target mRNA inhibition (0.313 µM): 65%; target mRNA inhibition (1.25 µM): 80%; target mRNA inhibition (5 µM): 95%
5 | AGTACAGTTCCTTTTC (sugars k3 d1 m1 d8 k3, PS) | 56 | 
6 | ATTCACATATGTGAAG (sugars k3 d10 k3, PS) | 0 | 
7 | TGATATTCTGTGGCAT (sugars k3 d10 k3, PS) | 69 | target mRNA inhibition (0.02 µM): 0%; target mRNA inhibition (0.078 µM): 0%; target mRNA inhibition (0.313 µM): 22%; target mRNA inhibition (1.25 µM): 64%; target mRNA inhibition (5 µM): 82%
8 | GCATGGCTACAGATTG (sugars k3 d1 m1 d8 k3, PS) | 76 | target mRNA inhibition (0.02 µM): 2%; target mRNA inhibition (0.078 µM): 2%; target mRNA inhibition (0.313 µM): 31%; target mRNA inhibition (1.25 µM): 61%; target mRNA inhibition (5 µM): 78%
9 | TTAAAATAGAGTCGGT (sugars k3 d1 m1 d8 k3, PS) | 70 | 
10 | AATAGAGTCGGTCACC (sugars k3 d10 k3, PS) | 58 | 
11 | TTAAGCAGATGGCTTA (sugars k3 d10 k3, PS) | 0 | 
12 | GGTGCTGAGAAGATCG (sugars k3 d10 k3, PS) | 33 | 
13 | TGAAGTTAGTATAGTT (sugars k3 d10 k3, PS) | 43 | 
14 | ACTGAGTAAACGACTC (sugars k3 d10 k3, PS) | 45 | 
15 | CTCGCCTAAAGGAGAT (sugars k3 d10 k3, PS) | 56 | 
16 | AACTAACCTGACACAT (sugars k3 d10 k3, PS) | 20 | 
17 | TTCTACACCACACTAA (sugars k3 d10 k3, PS) | 12 | 
18 | TGACATAACTTCATAG (sugars k3 d10 k3, PS) | 51 | 
19 | GTAAAGGCTGGGTGAG (sugars k3 d10 k3, PS) | 41 | 
20 | CATATACAGACTAAGG (sugars k3 d10 k3, PS) | 57 | 
21 | TCTTGACAATGGTTGC (sugars k3 d9 k3 e1, PS) | 77 | target mRNA inhibition (0.02 µM): 0%; target mRNA inhibition (0.078 µM): 0%; target mRNA inhibition (0.313 µM): 11%; target mRNA inhibition (1.25 µM): 46%; target mRNA inhibition (5 µM): 79%
22 | AAGAGTCAGTATCCTC (sugars k3 d10 k3, PS) | 63 | 
23 | TAAAGTGCTAAGTAGT (sugars k3 d10 k3, PS) | 50 | 
24 | GAGTGCATCTTAAGAT (sugars kkdddddddddkekek, PS) | 27 | 
25 | AAGTTAGCCCCCAGGA (sugars k3 d10 k3, PS) | 36 | 

Row | Sequence | target mRNA inhibition (1 µM) [%] | further results
26 | GGACCAAGGATATATG (sugars k3 d10 k3, PS) | 56 | 
27 | TGTCCACCTTTAAATG (sugars k3 d10 k3, PS) | 29 | 
28 | GATATTGTTTAGCTGA (sugars k3 d10 k3, PS) | 59 | 
29 | ATAGAGTTGCACCGTT (sugars k3 d9 k3 e1, PS) | 71 | 
30 | AGCCACTGTGACGATG (sugars k3 d10 k3, PS) | 10 | 
31 | CTGGAGGTATGTCATA (sugars k3 d10 k3, PS) | 23 | 
32 | GACATAGACATGTGTT (sugars k3 d10 k3, PS) | 26 | 
33 | TGTGTTAGCTTTAATT (sugars k3 d10 k3, PS) | 38 | 
34 | TATTGGTAAGTATTCC (sugars k3 d1 m1 d8 k3, PS) | 41 | 
35 | CCTGTGTAAATAAGTT (sugars k3 d10 k3, PS) | 18 | 
36 | AGCATAAGTTACCAGA (sugars k3 d10 k3, PS) | 87 | target mRNA inhibition (0.02 µM): 14%; target mRNA inhibition (0.078 µM): 31%; target mRNA inhibition (0.313 µM): 49%; target mRNA inhibition (1.25 µM): 73%; target mRNA inhibition (5 µM): 92%
37 | TTGGUAAGTATTCCAT (sugars k3 d1 m1 d8 k3, PS) | 13 | 
38 | CGGTCACCTTTCATAA (sugars k3 d9 k3 e1, PS) | 67 | 
39 | CTTACCAATATGGGAT (sugars k3 d10 k3, PS) | 11 | 
40 | TTTGAGAGAACTTATA (sugars k3 d10 k3, PS) | 0 | 
41 | TAAACATCTCTGGGAC (sugars k3 d1 m1 d8 k3, PS) | 49 | 
42 | ATGTTAGGACCCAGTC (sugars k3 d10 k3, PS) | 60 | 
43 | GTGCCAAACCAATGTT (sugars k3 d9 k3 e1, PS) | 56 | 
44 | AAATCATGGTGTGGAG (sugars k3 d10 k3, PS) | 1 | 
45 | GACCAATATAATCCAA (sugars k3 d10 k3, PS) | 34 | 
46 | GATTTAAAATAGAGTC (sugars k3 d10 k3, PS) | 46 | 
47 | TGATAAAATAGGGTGC (sugars k3 d10 k3, PS) | 44 | 
48 | GCTCCAGTAATGAGAA (sugars k3 d10 k3, PS) | 34 | 
49 | CTTAUTGGTAAGTATT (sugars k3 d1 m1 d8 k3, PS) | 0 | 
50 | CTGGGACCAAGGATAT (sugars k3 d10 k3, PS) | 32 | 

Row | Sequence | target mRNA inhibition (1 µM) [%] | further results
51 | CAGTACAGTTCCTTTT (sugars k3 d10 k3, PS) | 43 | 
52 | ATCAAATGTATGTGCT (sugars k3 d10 k3, PS) | 73 | 
53 | CCAGAAGTATGTGAAC (sugars k3 d10 k3, PS) | 8 | 
54 | TTCGAATCATTAAGCT (sugars k3 d10 k3, PS) | 63 | 
55 | GAATGCTACTTGAACA (sugars k3 d1 m1 d8 k3, PS) | 48 | 
56 | AGGATGTTGACCTCAA (sugars k3 d10 k3, PS) | 4 | 
57 | TACAGATTGGAATGCT (sugars k3 d10 k3, PS) | 46 | 
58 | TGCCAAACCAATGTTT (sugars k3 d10 k3, PS) | 32 | 
59 | TGCCAAACCAATGTTT (sugars kkdddddddddkekek, PS) | 61 | 
60 | AGTGGGAGTCGGATTA (sugars k3 d10 k3, PS) | 50 | 
61 | TGGCATGGCTACAGAT (sugars k3 d1 m1 d8 k3, PS) | 57 | 
62 | AGCTGGTAAAGGTAAG (sugars k3 d10 k3, PS) | 55 | 
63 | AGTTTTGGGACCAATA (sugars k3 d10 k3, PS) | 31 | 
64 | AGTATTCCATCTATCA (sugars k3 d10 k3, PS) | 62 | 
65 | TAAGATACCCAGGTTG (sugars k3 d9 k3 e1, PS) | 58 | 
66 | AAGAUACCCAGGTTGC (sugars k3 d1 m1 d8 k3, PS) | 37 | 
67 | GAGCATAAGTTACCAG (sugars k3 d10 k3, PS) | 61 | 
68 | TAAAGCTGCCTGCTGA (sugars k3 d10 k3, PS) | 44 | 
69 | GGCAAGACAGACTGTT (sugars k3 d10 k3, PS) | 75 | 
70 | AATTCTAAACTAGTGG (sugars k3 d10 k3, PS) | 31 | 
71 | GATCTCTTAGCTGTGC (sugars k3 d9 k3 e1, PS) | 70 | 
72 | CCATCTATCAGACTTC (sugars k3 d10 k3, PS) | 78 | target mRNA inhibition (0.02 µM): 0%; target mRNA inhibition (0.078 µM): 0%; target mRNA inhibition (0.313 µM): 20%; target mRNA inhibition (1.25 µM): 63%; target mRNA inhibition (5 µM): 78%
73 | TAGTTATCTTCTCACT (sugars k3 d10 k3, PS) | 52 | 
74 | AACTTTTAGTCAGGTA (sugars k3 d10 k3, PS) | 49 | 
75 | TCTTGACAATGGTTGC (sugars k3 d10 k3, PS) | 77 | 

Row | Sequence | target mRNA inhibition (1 µM) [%] | further results
76 | TATACGATGGAACAAA (sugars k3 d10 k3, PS) | 4 | 
77 | TGACAATGGTTGCCAC (sugars kkdddddddddkekek, PS) | 38 | 
78 | AATTTTCGGGTTCTTA (sugars k3 d10 k3, PS) | 35 | 
79 | CTTGACAATGGTTGCC (sugars k3 d10 k3, PS) | 58 | 
80 | CTCTAAAGCAGGCTAC (sugars k3 d10 k3, PS) | 51 | 
81 | ATTGUCTAAACATCTC (sugars k3 d1 m1 d8 k3, PS) | 73 | 
82 | CTCGCGAGATGATGTT (sugars k3 d10 k3, PS) | 40 | 
83 | GCTAAAATGGTCATCT (sugars k3 d10 k3, PS) | 40 | 
84 | TTAGTCTTGATGTAGT (sugars kkdddddddddkekek, PS) | 36 | 
85 | CCCACAGAACCAATAT (sugars k3 d10 k3, PS) | 16 | 
86 | CAAGTGACAGCATTGA (sugars k3 d10 k3, PS) | 48 | 
87 | TAGTGAACATACATTG (sugars k3 d10 k3, PS) | 23 | 
88 | ATGAGATTACCCCTGG (sugars k3 d10 k3, PS) | 62 | 
89 | AGGAAGTGATCCATAT (sugars k3 d10 k3, PS) | 60 | 
90 | CAATTGCTCTATAGAT (sugars k3 d10 k3, PS) | 15 | 
91 | ACAGTAAAATTATGCC (sugars k3 d10 k3, PS) | 73 | target mRNA inhibition (0.02 µM): 0%; target mRNA inhibition (0.078 µM): 0%; target mRNA inhibition (0.313 µM): 4%; target mRNA inhibition (1.25 µM): 50%; target mRNA inhibition (5 µM): 68%
92 | CTTTGAGACTCTTGTT (sugars k3 d1 m1 d8 k3, PS) | 15 | 
93 | TCCGAAAAAAGTGGAG (sugars k3 d10 k3, PS) | 12 | 
94 | AAAATATGTCCAGGTT (sugars k3 d10 k3, PS) | 74 | 
95 | ACACCGCGCTTATTAA (sugars k3 d10 k3, PS) | 7 | 
96 | AAGTGCTTTTGTGATC (sugars k3 d10 k3, PS) | 41 | 
97 | TGGTAAGGAGTAGTGG (sugars k3 d10 k3, PS) | 34 | 
98 | AGCCAGTACAGTTCCT (sugars kkdddddddddkekek, PS) | 49 | 
